# Measurements reported in patent US20150197497A1, “SELECTIVE INHIBITORS OF HISTONE DEACETYLASE ISOFORM 6 AND METHODS THEREOF” (DANA-FARBER CANCER INSTITUTE, INC., priority 2011, published 2015).
# Key:
# [1] = target: T1, HDAC8 (Homo sapiens, UniProt Q9BY41); experiment: In vitro HDAC enzyme inhibition assay, HDAC8; format: biochemical; settings: for HDAC8/HDAC6 in vitro selectivity: ratio of IC50 for HDAC8 relative to that of HDAC6; for IC50: recombinant full-length HDAC8, substrate MAZ1675 282 μM
# T1 construct: Recombinant, full-length HDAC protein (BPS Biosciences) was incubated with fluorophore conjugated substrate; purchased BPS Biosciences
# T1 sequence (Q9BY41 1-377): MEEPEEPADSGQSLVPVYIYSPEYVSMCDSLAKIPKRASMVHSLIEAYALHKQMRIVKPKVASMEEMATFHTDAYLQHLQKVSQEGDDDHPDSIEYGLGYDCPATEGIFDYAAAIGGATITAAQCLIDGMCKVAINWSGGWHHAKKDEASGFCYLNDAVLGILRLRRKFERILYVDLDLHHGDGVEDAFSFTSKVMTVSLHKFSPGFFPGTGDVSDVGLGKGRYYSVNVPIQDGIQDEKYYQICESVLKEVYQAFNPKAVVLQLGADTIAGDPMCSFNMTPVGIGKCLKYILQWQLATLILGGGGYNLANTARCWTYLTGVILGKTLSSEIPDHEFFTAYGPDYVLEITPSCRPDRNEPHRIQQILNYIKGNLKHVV
# Protocol: (§1) In vitro Histone Deacetylase enzyme assays were performed using Class I (isoforms: HDAC1, HDAC2, HDAC3 and HDAC8), class IIa (isoforms: HDAC4, HDAC5, HDAC7 and HDAC9) and class IIb (isoform HDAC6).
# (§2) HDAC activities were determined in vitro with an optimized homogenous assay performed in a 384-well plate. Recombinant, full-length HDAC protein (BPS Biosciences) was incubated with fluorophore conjugated substrate, MAZ1600 and MAZ1675, at Km=[S]. […] Reactions were performed in assay buffer (50 mM HEPES, 100 mM KCl, 0.001% Tween-20, 0.05% BSA, 200 μM tris(2-carboxyethyl)phosphine (TCEP), pH 7.4) and followed for fluorogenic release of 7-amino-4-methylcoumarin from substrate upon deacetylase and trypsin enzymatic activity. Fluorescence measurements were obtained every five minutes using a multilabel plate reader and plate-stacker (Envision; Perkin-Elmer). Each plate was analyzed by plate repeat, and the first derivative within the linear range was imported into analytical software (Spotfire DecisionSite and GraphPad Prism). Replicate experimental data from incubations with inhibitor were normalized to controls.
# [2] = target: T2, HDAC6 (Homo sapiens, UniProt Q9UBN7); experiment: In vitro HDAC enzyme inhibition assay, HDAC6; format: biochemical; settings: recombinant full-length HDAC6, substrate MAZ1600 9 μM
# T2 construct: Recombinant, full-length HDAC protein (BPS Biosciences) was incubated with fluorophore conjugated substrate; purchased BPS Biosciences
# T2 sequence (Q9UBN7 1-1215): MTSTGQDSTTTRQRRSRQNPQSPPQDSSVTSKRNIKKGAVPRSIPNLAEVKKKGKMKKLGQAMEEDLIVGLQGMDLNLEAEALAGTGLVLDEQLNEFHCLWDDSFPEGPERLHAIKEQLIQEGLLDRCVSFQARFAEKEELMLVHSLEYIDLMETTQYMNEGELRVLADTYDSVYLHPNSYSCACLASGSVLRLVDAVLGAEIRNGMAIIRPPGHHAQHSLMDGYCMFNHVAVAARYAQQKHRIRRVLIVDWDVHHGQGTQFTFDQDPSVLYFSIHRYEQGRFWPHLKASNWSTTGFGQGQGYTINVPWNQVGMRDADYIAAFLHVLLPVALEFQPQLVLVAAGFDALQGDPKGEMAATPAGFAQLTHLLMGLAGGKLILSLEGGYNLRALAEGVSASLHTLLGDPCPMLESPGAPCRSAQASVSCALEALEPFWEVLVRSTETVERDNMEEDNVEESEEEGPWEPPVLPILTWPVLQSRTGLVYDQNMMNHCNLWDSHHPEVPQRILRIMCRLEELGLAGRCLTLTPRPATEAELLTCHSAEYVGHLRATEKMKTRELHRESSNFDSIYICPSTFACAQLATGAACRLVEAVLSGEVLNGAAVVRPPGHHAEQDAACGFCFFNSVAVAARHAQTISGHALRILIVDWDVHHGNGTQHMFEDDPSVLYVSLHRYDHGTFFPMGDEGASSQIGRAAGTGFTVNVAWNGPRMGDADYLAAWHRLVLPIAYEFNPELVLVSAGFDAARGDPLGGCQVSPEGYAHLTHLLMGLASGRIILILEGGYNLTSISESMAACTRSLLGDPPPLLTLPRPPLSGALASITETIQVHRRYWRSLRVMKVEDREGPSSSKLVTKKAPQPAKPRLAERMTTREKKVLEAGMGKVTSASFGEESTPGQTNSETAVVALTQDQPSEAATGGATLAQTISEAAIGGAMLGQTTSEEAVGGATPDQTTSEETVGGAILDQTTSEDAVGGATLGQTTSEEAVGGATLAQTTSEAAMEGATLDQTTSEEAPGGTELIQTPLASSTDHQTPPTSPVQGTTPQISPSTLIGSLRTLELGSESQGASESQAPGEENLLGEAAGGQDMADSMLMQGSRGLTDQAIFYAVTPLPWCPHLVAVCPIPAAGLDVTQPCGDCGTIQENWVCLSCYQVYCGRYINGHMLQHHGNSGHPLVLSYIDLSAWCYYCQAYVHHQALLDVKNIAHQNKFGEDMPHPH
# Method in brief: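 Full-length recombinant enzyme + MAZ1600/MAZ1675 substrate at [S]=Km, HEPES/KCl/Tween-20/BSA/TCEP buffer pH 7.4; AMC fluorescence via deacetylase + trypsin, kinetic read q5 min; slope in linear range normalized to controls.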
# [3] = target: T3, HDAC9 (Homo sapiens, UniProt Q9UKV0); experiment: In vitro HDAC enzyme inhibition assay, HDAC9; format: biochemical; settings: for HDAC9/HDAC6 in vitro selectivity: ratio of IC50 for HDAC9 relative to that of HDAC6; for IC50: recombinant full-length HDAC9, substrate MAZ1675 26 μM; for selectivity toward HDAC6 compared to HDAC9 (in words): tested in vitro
# T3 construct: Recombinant, full-length HDAC protein (BPS Biosciences) was incubated with fluorophore conjugated substrate; purchased BPS Biosciences
# T3 sequence (Q9UKV0 whole entry): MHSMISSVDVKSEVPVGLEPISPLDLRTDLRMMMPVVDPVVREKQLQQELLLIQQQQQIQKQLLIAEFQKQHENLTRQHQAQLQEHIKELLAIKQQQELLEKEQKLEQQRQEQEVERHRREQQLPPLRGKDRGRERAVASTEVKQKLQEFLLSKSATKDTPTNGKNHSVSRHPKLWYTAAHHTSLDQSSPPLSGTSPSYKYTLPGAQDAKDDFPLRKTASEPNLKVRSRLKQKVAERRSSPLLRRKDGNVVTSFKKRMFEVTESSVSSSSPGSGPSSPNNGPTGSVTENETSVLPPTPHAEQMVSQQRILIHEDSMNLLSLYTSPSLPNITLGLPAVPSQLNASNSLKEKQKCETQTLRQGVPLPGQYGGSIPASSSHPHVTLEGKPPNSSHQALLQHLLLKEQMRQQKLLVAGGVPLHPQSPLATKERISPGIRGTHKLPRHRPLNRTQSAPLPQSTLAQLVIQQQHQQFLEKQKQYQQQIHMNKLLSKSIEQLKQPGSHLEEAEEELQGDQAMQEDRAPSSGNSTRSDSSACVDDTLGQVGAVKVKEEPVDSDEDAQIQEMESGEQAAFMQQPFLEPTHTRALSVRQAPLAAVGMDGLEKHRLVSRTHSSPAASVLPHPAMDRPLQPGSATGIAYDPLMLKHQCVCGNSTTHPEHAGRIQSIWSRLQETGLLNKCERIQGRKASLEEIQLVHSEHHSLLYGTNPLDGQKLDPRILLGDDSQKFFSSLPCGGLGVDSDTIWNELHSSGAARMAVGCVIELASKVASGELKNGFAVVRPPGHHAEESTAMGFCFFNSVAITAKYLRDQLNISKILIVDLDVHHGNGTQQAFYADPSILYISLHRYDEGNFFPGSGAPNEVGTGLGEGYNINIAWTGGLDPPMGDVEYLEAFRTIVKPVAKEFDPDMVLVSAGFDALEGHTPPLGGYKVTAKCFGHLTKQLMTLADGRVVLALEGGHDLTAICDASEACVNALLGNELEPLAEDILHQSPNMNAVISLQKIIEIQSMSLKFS
# Protocol: as §1, §2
# [4] = target: T4, HDAC4 (Homo sapiens, UniProt P56524); experiment: In vitro HDAC enzyme inhibition assay, HDAC4; format: biochemical; settings: for HDAC4/HDAC6 in vitro selectivity: ratio of IC50 for HDAC4 relative to that of HDAC6; for IC50: recombinant full-length HDAC4, substrate MAZ1675 10 μM; for selectivity toward HDAC6 compared to HDAC4 (in words): tested in vitro
# T4 construct: Recombinant, full-length HDAC protein (BPS Biosciences) was incubated with fluorophore conjugated substrate; purchased BPS Biosciences
# T4 sequence (P56524 whole entry): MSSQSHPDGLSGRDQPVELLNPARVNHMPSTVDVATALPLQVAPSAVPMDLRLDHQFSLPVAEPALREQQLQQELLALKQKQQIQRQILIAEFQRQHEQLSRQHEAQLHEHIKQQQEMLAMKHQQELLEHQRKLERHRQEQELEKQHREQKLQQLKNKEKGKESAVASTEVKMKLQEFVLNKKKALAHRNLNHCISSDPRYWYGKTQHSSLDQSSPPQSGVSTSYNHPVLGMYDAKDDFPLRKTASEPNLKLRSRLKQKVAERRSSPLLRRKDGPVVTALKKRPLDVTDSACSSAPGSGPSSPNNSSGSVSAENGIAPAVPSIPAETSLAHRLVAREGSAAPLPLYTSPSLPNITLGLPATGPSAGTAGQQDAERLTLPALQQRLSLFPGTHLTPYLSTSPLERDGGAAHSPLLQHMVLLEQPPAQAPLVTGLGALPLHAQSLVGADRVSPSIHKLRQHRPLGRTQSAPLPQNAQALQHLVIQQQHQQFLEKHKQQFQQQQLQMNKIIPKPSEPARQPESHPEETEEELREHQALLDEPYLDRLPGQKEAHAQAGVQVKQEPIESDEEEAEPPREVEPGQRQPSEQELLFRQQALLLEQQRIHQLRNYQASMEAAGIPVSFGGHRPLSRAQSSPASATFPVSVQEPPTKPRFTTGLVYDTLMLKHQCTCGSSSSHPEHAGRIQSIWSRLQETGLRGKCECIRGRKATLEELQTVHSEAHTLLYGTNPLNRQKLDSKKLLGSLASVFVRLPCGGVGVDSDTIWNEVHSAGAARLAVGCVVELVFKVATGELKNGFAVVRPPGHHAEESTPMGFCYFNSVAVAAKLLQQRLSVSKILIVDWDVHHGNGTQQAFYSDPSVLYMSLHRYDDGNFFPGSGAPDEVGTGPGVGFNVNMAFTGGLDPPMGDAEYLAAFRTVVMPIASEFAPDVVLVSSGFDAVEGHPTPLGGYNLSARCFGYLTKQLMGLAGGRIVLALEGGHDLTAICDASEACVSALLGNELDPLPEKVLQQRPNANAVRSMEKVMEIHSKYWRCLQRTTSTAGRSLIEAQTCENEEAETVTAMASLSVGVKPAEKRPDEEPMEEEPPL
# Protocol: as §1, §2
# [5] = target: T5, HDAC2 (Homo sapiens, UniProt Q92769); experiment: In vitro HDAC enzyme inhibition assay, HDAC2; format: biochemical; settings: for HDAC2/HDAC6 in vitro selectivity: ratio of IC50 for HDAC2 relative to that of HDAC6; for IC50: recombinant full-length HDAC2, substrate MAZ1600 22 μM
# T5 construct: Recombinant, full-length HDAC protein (BPS Biosciences) was incubated with fluorophore conjugated substrate; purchased BPS Biosciences
# T5 sequence (Q92769 whole entry): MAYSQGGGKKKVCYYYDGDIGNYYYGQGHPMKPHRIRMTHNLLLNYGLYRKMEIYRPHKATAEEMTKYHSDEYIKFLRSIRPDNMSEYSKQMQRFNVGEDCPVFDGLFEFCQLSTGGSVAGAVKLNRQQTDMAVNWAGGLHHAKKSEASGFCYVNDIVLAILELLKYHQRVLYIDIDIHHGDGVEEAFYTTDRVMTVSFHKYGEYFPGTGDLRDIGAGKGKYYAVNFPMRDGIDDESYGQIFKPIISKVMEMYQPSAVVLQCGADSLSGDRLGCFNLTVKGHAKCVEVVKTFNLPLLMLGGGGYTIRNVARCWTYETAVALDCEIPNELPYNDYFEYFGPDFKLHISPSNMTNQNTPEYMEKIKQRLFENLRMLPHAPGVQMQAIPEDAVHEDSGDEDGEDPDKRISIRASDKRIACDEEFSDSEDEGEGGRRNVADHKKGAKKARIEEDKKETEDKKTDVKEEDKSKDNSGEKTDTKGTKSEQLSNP
# Protocol: as §1, §2
# [6] = system: acetylated histones; experiment: High-content image analysis of induction of acetylated histones in A549 cells; settings: for EC50: Homo sapiens, A549, 8 h, read-out: EC50 for half-maximal induction of acetylated histones (AcHistone)
# Protocol: Cells were treated with each test HDACi compound with an automated pin transfer instrument (Janus, Perkin Elmer) and incubated for 8 hours. […] Fixation solution was aspirated and 90 μL of washing solution (0.1% Triton X-100 in PBS) was added prior to 10 minute incubation at 4° C. Washing solution was aspirated and cells were incubated at 4° C. for about 1 hour in blocking solution (0.1% Triton X-100+2% BSA in PBS). Washing solution was aspirated, and cells were incubated for about 1 hour at 4° C. in primary antibody for acetylated-tubulin (Sigma T7451) and acetylated-histone (Cell Signaling #9441L) at a 1:1000 dilution in blocking solution. Primary antibody solution was aspirated, and cells were washed three times in 90 μL of washing solution. […] Secondary antibody and nuclear staining solution was aspirated and cells were washed three times in 90 μL of washing solution. After the third wash, 50 μL of PBS was added to each well. Image acquisition was done on a high content imaging microscope (ImageXpress Micro, Molecular Devices), and image analysis (MetaXpress, Molecular Devices) was performed to obtain average acetylated-tubulin and acetylated-histone signal per cell based on treatment. Replicate experimental data from incubations with inhibitor were normalized to DMSO controls.
# [7] = target: T6, HDAC3 (Homo sapiens, UniProt O15379); experiment: In vitro HDAC enzyme inhibition assay, HDAC3; format: biochemical; settings: for HDAC3/HDAC6 in vitro selectivity: ratio of IC50 for HDAC3 relative to that of HDAC6; for IC50: recombinant full-length HDAC3, substrate MAZ1600 9 μM
# T6 construct: Recombinant, full-length HDAC protein (BPS Biosciences) was incubated with fluorophore conjugated substrate; purchased BPS Biosciences
# T6 sequence (O15379 whole entry): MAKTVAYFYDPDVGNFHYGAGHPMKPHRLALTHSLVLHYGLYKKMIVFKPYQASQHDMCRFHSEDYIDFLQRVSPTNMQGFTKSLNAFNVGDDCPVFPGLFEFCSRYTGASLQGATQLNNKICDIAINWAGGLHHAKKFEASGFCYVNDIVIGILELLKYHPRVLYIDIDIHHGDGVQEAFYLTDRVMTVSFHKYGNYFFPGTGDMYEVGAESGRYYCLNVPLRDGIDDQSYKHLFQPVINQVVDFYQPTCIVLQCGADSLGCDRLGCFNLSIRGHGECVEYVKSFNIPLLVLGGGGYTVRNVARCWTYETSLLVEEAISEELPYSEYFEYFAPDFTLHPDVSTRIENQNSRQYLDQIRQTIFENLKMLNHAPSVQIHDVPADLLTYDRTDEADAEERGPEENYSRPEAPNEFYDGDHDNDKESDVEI
# T6 sequence (Q9Y618 395-489 partner limits assumed): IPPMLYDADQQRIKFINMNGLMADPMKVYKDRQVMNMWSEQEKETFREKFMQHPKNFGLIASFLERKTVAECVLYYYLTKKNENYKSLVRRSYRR
# Protocol: as §1, §2
# [8] = target: T7, HDAC5 (Homo sapiens, UniProt Q9UQL6); experiment: In vitro HDAC enzyme inhibition assay, HDAC5; format: biochemical; settings: for HDAC5/HDAC6 in vitro selectivity: ratio of IC50 for HDAC5 relative to that of HDAC6; for IC50: recombinant full-length HDAC5, substrate MAZ1675 40 μM; for selectivity toward HDAC6 compared to HDAC5 (in words): tested in vitro
# T7 construct: Recombinant, full-length HDAC protein (BPS Biosciences) was incubated with fluorophore conjugated substrate; purchased BPS Biosciences
# T7 sequence (Q9UQL6 whole entry): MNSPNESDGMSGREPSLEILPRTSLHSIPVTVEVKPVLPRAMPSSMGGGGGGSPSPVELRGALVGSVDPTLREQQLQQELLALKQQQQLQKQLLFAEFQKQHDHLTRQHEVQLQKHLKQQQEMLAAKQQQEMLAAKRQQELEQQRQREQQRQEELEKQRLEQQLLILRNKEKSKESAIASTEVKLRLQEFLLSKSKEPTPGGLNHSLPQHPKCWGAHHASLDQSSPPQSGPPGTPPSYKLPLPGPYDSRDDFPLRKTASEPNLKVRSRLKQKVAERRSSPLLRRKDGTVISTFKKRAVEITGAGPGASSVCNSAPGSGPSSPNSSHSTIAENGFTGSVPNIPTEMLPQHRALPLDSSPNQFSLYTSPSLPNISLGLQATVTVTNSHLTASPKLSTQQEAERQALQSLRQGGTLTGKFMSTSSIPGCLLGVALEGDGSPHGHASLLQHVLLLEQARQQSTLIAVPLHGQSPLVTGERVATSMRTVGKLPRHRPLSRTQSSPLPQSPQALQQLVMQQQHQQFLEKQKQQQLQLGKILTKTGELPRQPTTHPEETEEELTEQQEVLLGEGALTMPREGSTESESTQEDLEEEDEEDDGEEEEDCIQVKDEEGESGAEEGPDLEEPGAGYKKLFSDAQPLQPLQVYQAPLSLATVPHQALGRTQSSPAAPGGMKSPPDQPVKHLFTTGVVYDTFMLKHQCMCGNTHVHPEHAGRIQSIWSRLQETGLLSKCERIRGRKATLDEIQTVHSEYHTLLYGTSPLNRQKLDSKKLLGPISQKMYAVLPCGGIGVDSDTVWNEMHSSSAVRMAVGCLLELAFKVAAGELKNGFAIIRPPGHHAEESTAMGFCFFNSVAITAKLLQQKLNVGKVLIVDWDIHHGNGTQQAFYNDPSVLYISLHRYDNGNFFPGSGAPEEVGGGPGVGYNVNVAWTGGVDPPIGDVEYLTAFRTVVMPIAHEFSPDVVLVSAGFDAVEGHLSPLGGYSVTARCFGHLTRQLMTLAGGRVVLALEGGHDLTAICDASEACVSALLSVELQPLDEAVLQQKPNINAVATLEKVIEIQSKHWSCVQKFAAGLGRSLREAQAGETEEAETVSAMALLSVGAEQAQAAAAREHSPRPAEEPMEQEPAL
# Protocol: as §1, §2
Structure (SMILES),HDAC8/HDAC6 in vitro selectivity [1],IC50 [1] [nM],IC50 [2] [nM],HDAC9/HDAC6 in vitro selectivity [3],IC50 [3] [nM],selectivity toward HDAC6 compared to HDAC9 (in words) [3],HDAC4/HDAC6 in vitro selectivity [4],IC50 [4] [nM],selectivity toward HDAC6 compared to HDAC4 (in words) [4],HDAC2/HDAC6 in vitro selectivity [5],IC50 [5] [nM],EC50 [6] [nM],HDAC3/HDAC6 in vitro selectivity [7],IC50 [7] [nM],HDAC5/HDAC6 in vitro selectivity [8],IC50 [8] [nM],selectivity toward HDAC6 compared to HDAC5 (in words) [8],"levels of acetylated histone, dose response (in words) ([6]; A549 cells, FIG. 11)"
"O=C(NO)c1ccc(Cn2c(=O)[nH]c3cc(F)ccc32)cc1 [B3, 4-((5-fluoro-2-oxo-2,3-dihydro-1H-benzo[d]imidazol-1-yl)methyl)N-hydroxybenzamide]",12899,278,0.0216,66950,1440,"exceptionally high selectivity (Inhibitors with in vitro selectivity values for HDAC6 of at least 30,000 are considered to have exceptionally high selectivity toward HDAC6)",79927,1720,"exceptionally high selectivity (Inhibitors with in vitro selectivity values for HDAC6 of at least 30,000 are considered to have exceptionally high selectivity toward HDAC6)",3002,64.7,1480,6307,136,51438,1110,"exceptionally high selectivity (Inhibitors with in vitro selectivity values for HDAC6 of at least 30,000 are considered to have exceptionally high selectivity toward HDAC6)",
"O=C(NO)c1ccc(Cn2c(=O)[nH]c3cc(Cl)ccc32)cc1 [B4, 4-((5-chloro-2-oxo-2,3-dihydro-1H-benzo[d]imidazol-1-yl)methyl)-N-hydroxybenzamide]",6673,169,0.0253,16475,416,,25301,639,,210,5.3,420,353,8.92,22793,576,,
"O=C(NO)c1ccc(Cn2c(=O)[nH]c3cc(Br)ccc32)cc1 [B5, 4-((5-bromo-2-oxo-2,3-dihydro-1H-benzo[d]imidazol-1-yl)methyl)-N-hydroxybenzamide]",12655,259,0.0205,39480,809,"exceptionally high selectivity (Inhibitors with in vitro selectivity values for HDAC6 of at least 30,000 are considered to have exceptionally high selectivity toward HDAC6)",57687,1180,"exceptionally high selectivity (Inhibitors with in vitro selectivity values for HDAC6 of at least 30,000 are considered to have exceptionally high selectivity toward HDAC6)",444,9.09,846,495,10.1,39409,808,"exceptionally high selectivity (Inhibitors with in vitro selectivity values for HDAC6 of at least 30,000 are considered to have exceptionally high selectivity toward HDAC6)",
"O=C(NO)c1ccc(Cn2c(=O)[nH]c3cc(C(F)(F)F)ccc32)cc1 [B6, N-hydroxy-4-((2-oxo-5-(trifluoromethyl)-2,3-dihydro-1H-benzo[d]imidazol-1-yl)methyl)benzamide]",48637,302,0.00621,114680,712,"exceptionally high selectivity (Inhibitors with in vitro selectivity values for HDAC6 of at least 30,000 are considered to have exceptionally high selectivity toward HDAC6)",229041,1420,"exceptionally high selectivity (Inhibitors with in vitro selectivity values for HDAC6 of at least 30,000 are considered to have exceptionally high selectivity toward HDAC6)",1754,10.9,~629,2366,14.7,122813,762,"exceptionally high selectivity (Inhibitors with in vitro selectivity values for HDAC6 of at least 30,000 are considered to have exceptionally high selectivity toward HDAC6)",absence of the dose-dependent response
"COc1ccc2c(c1)[nH]c(=O)n2Cc1ccc(C(=O)NO)cc1 [B7, N-hydroxy-4-((5-methoxy-2-oxo-2,3-dihydro-1H-benzo[d]imidazol-1-yl)methyl)benzamide]",21403,551,0.0257,47920,1230,"exceptionally high selectivity (Inhibitors with in vitro selectivity values for HDAC6 of at least 30,000 are considered to have exceptionally high selectivity toward HDAC6)",60006,1540,"exceptionally high selectivity (Inhibitors with in vitro selectivity values for HDAC6 of at least 30,000 are considered to have exceptionally high selectivity toward HDAC6)",991,25.5,1540,1236,31.8,57925,1490,"exceptionally high selectivity (Inhibitors with in vitro selectivity values for HDAC6 of at least 30,000 are considered to have exceptionally high selectivity toward HDAC6)",
